Results taken from PubChem BioAssay AID330 (DTP/NCI, 2004).
“And” between values parts separate entries of the source, which are not always exact repeats. Equal values may be shown once. Inconclusive results and toxic doses are left out.

Tested on: P388 leukemia ip, CD2F1 mice, survival T/C
Test: NCI In Vivo Anticancer Drug Screen. Data for tumor model P388 Leukemia (intraperitoneal) in CD2F1 (CDF1) mice
Conditions: endpoint: median survival time, higher = longer survival
Outline: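 Mice carrying the transplanted tumor received test compound or vehicle. Survival was recorded in each group, and the value is the treated-group measurement divided by that of the vehicle-treated control group.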

[1] = dose: 50.0 mg/kg/injection, schedule: Q01DX005 (ip), vehicle: saline with Tween-80
[2] = dose: 100.0 mg/kg/injection, schedule: Q01DX005 (ip), vehicle: saline with Tween-80
[3] = dose: 200.0 mg/kg/injection, schedule: Q01DX005 (ip), vehicle: saline with Tween-80
[4] = dose: 100.0 mg/kg/injection, schedule: Q01DX001 (ip), vehicle: saline with Tween-80
[5] = dose: 50.0 mg/kg/injection, schedule: Q01DX009 (ip), vehicle: saline with Tween-80
[6] = dose: 100.0 mg/kg/injection, schedule: Q01DX009 (ip), vehicle: saline with Tween-80
[7] = dose: 200.0 mg/kg/injection, schedule: Q01DX009 (ip), vehicle: saline with Tween-80

## O=[N+]([O-])c1ccc(N/N=C/CCl)c([N+](=O)[O-])c1
dose: 11.0 mg/kg/injection, schedule: Q04DX003 (ip), vehicle: Klucel (hydroxypropylcellulose) (HPC)
  T/C: 100 % of control
dose: 11.0 mg/kg/injection, schedule: Q04DX003 (ip), vehicle: saline with Tween-80
  T/C: 108 % of control
dose: 16.5 mg/kg/injection, schedule: Q04DX003 (ip), vehicle: Klucel (hydroxypropylcellulose) (HPC)
  T/C: 100 % of control
dose: 16.5 mg/kg/injection, schedule: Q04DX003 (ip), vehicle: saline with Tween-80
  T/C: 100 % of control
dose: 25.0 mg/kg/injection, schedule: Q04DX003 (ip), vehicle: Klucel (hydroxypropylcellulose) (HPC)
  T/C: 98 % of control
dose: 25.0 mg/kg/injection, schedule: Q04DX003 (ip), vehicle: saline with Tween-80
  T/C: 108 % of control
dose: 37.5 mg/kg/injection, schedule: Q04DX003 (ip), vehicle: Klucel (hydroxypropylcellulose) (HPC)
  T/C: 97 % of control
dose: 37.5 mg/kg/injection, schedule: Q04DX003 (ip), vehicle: saline with Tween-80
  T/C: 104 % of control

## N/N=C(/N)C1=NOCC1
dose: 100.0 mg/kg/injection, schedule: Q04DX002 (ip), vehicle: saline
  T/C: 114 % of control
dose: 200.0 mg/kg/injection, schedule: Q04DX002 (ip), vehicle: saline
  T/C: 106 % of control

## O=C1CCCC2=C1C1(OC3C=CC=CN23)C(=O)c2ccccc2C1=O (centres undefined)
[1]
  T/C: 103 % of control
[2]
  T/C: 97 % of control
[3]
  T/C: 92 % of control

## CC1=C(I)C2(CCCCC2)OC1=O
[4]
  T/C: 101 % of control
dose: 200.0 mg/kg/injection, schedule: Q01DX001 (ip), vehicle: saline with Tween-80
  T/C: 94 % of control
dose: 400.0 mg/kg/injection, schedule: Q01DX001 (ip), vehicle: saline with Tween-80
  T/C: 93 % of control

## Cn1cnc([N+](=O)[O-])c1Sc1nc(N)nc2nc[nH]c12
dose: 25.0 mg/kg/injection, schedule: Q01DX009 (ip), vehicle: saline with Tween-80
  T/C: 109 % of control
dose: 50.0 mg/kg/injection, schedule: Q01DX009 (ip), vehicle: saline sonified
  T/C: 109 % of control
dose: 100.0 mg/kg/injection, schedule: Q04DX003 (ip), vehicle: Klucel (hydroxypropylcellulose) (HPC)
  T/C: 122 % of control

## Nc1nc2ccc(CO)nc2c(=O)[nH]1
[1]
  T/C: 98 % of control
[2]
  T/C: 106 % of control
[3]
  T/C: 101 % of control

## O=C(O)CCCCCCCCC#CC#CCO
[1]
  T/C: 101 % of control
[2]
  T/C: 99 % of control
[3]
  T/C: 95 % of control

## C=C1C[C@](C(N)=O)(C2OC3OC(C)(C)OC3C2OCc2ccccc2)OC1=O (some centres undefined)
dose: 25.0 mg/kg/injection, schedule: Q01DX005 (ip), vehicle: saline with Tween-80
  T/C: 103 % of control
[1]
  T/C: 100 % of control
[4]
  T/C: 96 % of control
[2]
  T/C: 92 % of control

## CC[C@@]1(O)C(=O)OCc2c1cc1n(c2=O)Cc2cc3cc(O)ccc3nc2-1
dose: 0.5 mg/kg/injection, schedule: Q04DX003 (ip), vehicle: other
  T/C: 160 % of control and 229 % of control
dose: 0.79 mg/kg/injection, schedule: Q04DX003 (ip), vehicle: other
  T/C: 165 % of control
dose: 1.0 mg/kg/injection, schedule: Q04DX003 (ip), vehicle: other
  T/C: 166 % of control and 192 % of control
dose: 1.57 mg/kg/injection, schedule: Q04DX003 (ip), vehicle: other
  T/C: 199 % of control
dose: 2.0 mg/kg/injection, schedule: Q04DX003 (ip), vehicle: other
  T/C: 229 % of control
dose: 3.13 mg/kg/injection, schedule: Q04DX003 (ip), vehicle: other
  T/C: 295 % of control
dose: 4.0 mg/kg/injection, schedule: Q04DX003 (ip), vehicle: other
  T/C: 284 % of control and 314 % of control
dose: 8.0 mg/kg/injection, schedule: Q04DX003 (ip), vehicle: other
  T/C: 101 % of control

## COc1nc(/C=C/c2ccccc2)c([N+](=O)[O-])c(OC)n1
dose: 100.0 mg/kg/injection, schedule: Q04DX003 (ip), vehicle: saline
  T/C: 103 % of control
dose: 200.0 mg/kg/injection, schedule: Q04DX003 (ip), vehicle: saline
  T/C: 103 % of control
dose: 400.0 mg/kg/injection, schedule: Q04DX003 (ip), vehicle: saline
  T/C: 100 % of control

## Cc1ccc(S(=O)(=O)N/N=C/c2ccccc2)cc1
dose: 25.0 mg/kg/injection, schedule: Q01DX009 (ip), vehicle: Klucel (hydroxypropylcellulose) (HPC)
  T/C: 95 % of control
dose: 50.0 mg/kg/injection, schedule: Q01DX009 (ip), vehicle: Klucel (hydroxypropylcellulose) (HPC)
  T/C: 94 % of control
dose: 100.0 mg/kg/injection, schedule: Q01DX009 (ip), vehicle: Klucel (hydroxypropylcellulose) (HPC)
  T/C: 95 % of control
dose: 200.0 mg/kg/injection, schedule: Q01DX009 (ip), vehicle: Klucel (hydroxypropylcellulose) (HPC)
  T/C: 97 % of control
dose: 400.0 mg/kg/injection, schedule: Q01DX009 (ip), vehicle: Klucel (hydroxypropylcellulose) (HPC)
  T/C: 109 % of control

## CC1CCCC(C)N1C1=NCCO1 (centres undefined)
dose: 5.0 mg/kg/injection, schedule: Q04DX003 (ip), vehicle: saline
  T/C: 95 % of control
dose: 10.0 mg/kg/injection, schedule: Q04DX003 (ip), vehicle: saline
  T/C: 100 % of control
dose: 20.0 mg/kg/injection, schedule: Q04DX003 (ip), vehicle: saline
  T/C: 95 % of control

## COc1c(NC(C)=O)c2c(c([N+](=O)[O-])c1OC)C(=O)OC2
dose: 50.0 mg/kg/injection, schedule: Q01DX005 (ip), vehicle: Klucel (hydroxypropylcellulose) (HPC)
  T/C: 106 % of control
dose: 100.0 mg/kg/injection, schedule: Q01DX005 (ip), vehicle: Klucel (hydroxypropylcellulose) (HPC)
  T/C: 104 % of control
dose: 200.0 mg/kg/injection, schedule: Q01DX005 (ip), vehicle: Klucel (hydroxypropylcellulose) (HPC)
  T/C: 110 % of control

## Nc1[nH]c(=S)[nH]c(=O)c1NS(=O)(=O)c1ccc([N+](=O)[O-])cc1
dose: 30.0 mg/kg/injection, schedule: Q01DX005 (ip), vehicle: Klucel (hydroxypropylcellulose) (HPC)
  T/C: 101 % of control and 108 % of control
dose: 60.0 mg/kg/injection, schedule: Q01DX005 (ip), vehicle: Klucel (hydroxypropylcellulose) (HPC)
  T/C: 98 % of control and 94 % of control
dose: 120.0 mg/kg/injection, schedule: Q01DX005 (ip), vehicle: Klucel (hydroxypropylcellulose) (HPC)
  T/C: 101 % of control and 92 % of control
dose: 240.0 mg/kg/injection, schedule: Q01DX005 (ip), vehicle: Klucel (hydroxypropylcellulose) (HPC)
  T/C: 90 % of control

## Clc1ccc2c(c1)Oc1ccccc1C=N2
[5]
  T/C: 107 % of control
[6]
  T/C: 98 % of control
[7]
  T/C: 96 % of control

## O=C(NC1c2ccccc2Oc2ccccc21)c1ccc([N+](=O)[O-])cc1
[1]
  T/C: 102 % of control
[2]
  T/C: 93 % of control
[3]
  T/C: 91 % of control

## CCOC(=O)C1n2c(=O)n(-c3ccccc3)c(=O)n21
dose: 50.0 mg/kg/injection, schedule: Q01DX005 (ip), vehicle: Klucel + Tween-80
  T/C: 96 % of control
dose: 100.0 mg/kg/injection, schedule: Q01DX005 (ip), vehicle: Klucel + Tween-80
  T/C: 87 % of control
dose: 200.0 mg/kg/injection, schedule: Q01DX005 (ip), vehicle: Klucel + Tween-80
  T/C: 93 % of control

## CCOC(=O)c1ccccc1OP(=O)(N(C)C)N(C)C
[5]
  T/C: 99 % of control and 100 % of control and 108 % of control
[6]
  T/C: 99 % of control and 109 % of control and 97 % of control
[7]
  T/C: 99 % of control and 103 % of control and 109 % of control

## COC1CCC(O)C(C(=O)CN(C)C)C1 (centres undefined)
dose: 50.0 mg/kg/injection, schedule: Q01DX005 (ip), vehicle: saline
  T/C: 101 % of control
dose: 100.0 mg/kg/injection, schedule: Q01DX005 (ip), vehicle: saline
  T/C: 99 % of control
dose: 200.0 mg/kg/injection, schedule: Q01DX005 (ip), vehicle: saline
  T/C: 99 % of control

## O=C(NCCF)Oc1ccc([N+](=O)[O-])cc1
dose: 6.25 mg/kg/injection, schedule: Q01DX005 (ip), vehicle: Klucel (hydroxypropylcellulose) (HPC)
  T/C: 106 % of control
dose: 12.5 mg/kg/injection, schedule: Q01DX005 (ip), vehicle: Klucel (hydroxypropylcellulose) (HPC)
  T/C: 113 % of control and 115 % of control
dose: 25.0 mg/kg/injection, schedule: Q01DX005 (ip), vehicle: Klucel (hydroxypropylcellulose) (HPC)
  T/C: 121 % of control and 122 % of control

## C[Si](CNCCN)(c1ccccc1)c1ccccc1
dose: 15.0 mg/kg/injection, schedule: Q01DX005 (ip), vehicle: saline with Tween-80
  T/C: 103 % of control
dose: 30.0 mg/kg/injection, schedule: Q01DX005 (ip), vehicle: saline with Tween-80
  T/C: 102 % of control
dose: 60.0 mg/kg/injection, schedule: Q01DX005 (ip), vehicle: saline with Tween-80
  T/C: 96 % of control and 97 % of control

## CCN(CC)CCNc1cc2ccccc2c2sc3ccccc3c(=O)c12
dose: 25.0 mg/kg/injection, schedule: Q01DX005 (ip), vehicle: distilled water + Tween-80
  T/C: 102 % of control
dose: 50.0 mg/kg/injection, schedule: Q01DX005 (ip), vehicle: distilled water + Tween-80
  T/C: 103 % of control

## O=[N+]1C=CC=CC1=C1C=CC=CN1[O-]
[1]
  T/C: 104 % of control
[2]
  T/C: 110 % of control
[3]
  T/C: 103 % of control

## NC(=O)Nc1n[nH]c(-c2ccccc2)n1
dose: 100.0 mg/kg/injection, schedule: Q04DX003 (ip), vehicle: saline with Tween-80
  T/C: 90 % of control
dose: 200.0 mg/kg/injection, schedule: Q04DX003 (ip), vehicle: saline with Tween-80
  T/C: 90 % of control
dose: 400.0 mg/kg/injection, schedule: Q04DX003 (ip), vehicle: saline with Tween-80
  T/C: 90 % of control
